Assay results taken from patent publication US20260374766A1, “METHODS FOR TREATING CANCER” (Antares Therapeutics, Inc., priority 2022, published 2026).
Read-outs that look alike come from different tables or passages of the source.

Legend:
[1] = test system: H1299 p53 Y220C; assay: Cell Proliferation Assay (CellTiter-Glo, CTG), H1299 p53 Y220C (NClH1299-inducible p53 Y220C); type: cell-based; conditions: Homo sapiens, NCI-H1299, 120 h, CellTiter-Glo, 5 days
In short: (§1)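 Cells seeded at 250-500 per well and exposed to compound for 5 days. Viability read by CellTiter-Glo luminescence after 10 min at room temperature; IC50 calculated. H1299 lines carry Tet-One inducible p53 mutant constructs introduced by lentiviral transduction.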

[2] = target: T1, p53 Y220C mutant protein (amino acid residues 94-293) (Homo sapiens, UniProt P04637, Y220C); assay: Thermal Shift Assay (TSA), dTM; type: binding; conditions: for ΔTm at 10 µM: 10 uM compound; for ΔTm at 100 µM: 100 uM compound, read-out: TSA P53 Y220C dTM (100 uM)
T1 construct: p53 Y220C mutant protein (amino acid residues 94-293)
In short: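 TM is derived by fitting Sypro Orange melt curves (30 °C to 50 °C, 0.03 °C/second) to a Boltzmann two-state model. Beforehand, 5 μM p53 Y220C (94-293) sits with 10 μM or 100 μM compound for 3 hours at 20 °C in HEPES pH7.4 buffer containing 100 mM NaCl and 1% DMSO.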

[3] = target: p53 Y220C (Homo sapiens, UniProt P04637, Y220C); assay: Luciferase Reporter Assay (Luc), p53 response element, NClH1299 cells with inducible p53 Y220C; type: cell-based; conditions: luciferase reporter, NClH1299 inducible p53 Y220C, 6 hour; for AC50: read-out: Luc P53 Y220C AC50
In short: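 Doxycycline (0.5 ug/mL, 24 h) induces the mutant before a 6-hour compound treatment. Reporter activity is then quantified by One-Glo luminescence.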

[4] = test system: NUGC3 p53 Y220C; assay: Cell Proliferation Assay (CellTiter-Glo, CTG), NUGC3 p53 Y220C; type: cell-based; conditions: Homo sapiens, NUGC-3, 120 h, CellTiter-Glo, 5 days
In short: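 Tet-One inducible p53 Y220C or R273H constructs were stably introduced into NCI-H1299 by lentiviral transduction; NUGC3 was used as is. Cells (250-500 per well) were exposed to compound for 5 days, then CellTiter-Glo was added for 10 min at room temperature and IC50 was calculated from luminescence.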

[5] = test system: H1299 p53 R273H; assay: Cell Proliferation Assay (CellTiter-Glo, CTG), H1299 p53 R273H (NClH1299-inducible p53 R273H); type: cell-based; conditions: Homo sapiens, NCI-H1299, 120 h, CellTiter-Glo, 5 days
In short: as §1

[6] = target: T1, p53 Y220C mutant protein (amino acid residues 94-293); assay: Surface Plasmon Resonance (SPR) assay, Kd_kinetic; type: binding; conditions: SPR, p53 Y220C, read-out: SPR P53 Y220C KD kinetic
In short: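 Surface plasmon resonance is run at 16 or 20 °C in 50 mM Tris pH 7.5 containing 100 mM NaCl, 1 mM DTT, 0.01% Brij35, 0.05% Tween-20 and 1% DMSO. Association and dissociation data are fitted to a 1:1 model.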

[7] = thermal shift, read-out: TSA P53 Y220C dTM (10 uM)
[8] = 10 uM tool compound as positive control
[9] = NClH1299-inducible p53 Y220C cells
[10] = p53 Y220C, read-out: TSA P53 Y220C dTM
[11] = NClH1299-inducible p53 R273H cells

| Structure (SMILES) | IC50 ([1]; H1299 p53 Y220C) [nM] | ΔTm at 10 µM [2, 7] [°C] | Emax [3, 8] [%] | AC50 [3] [nM] | IC50 ([4]; NUGC3 p53 Y220C) [nM] | IC50 ([5]; H1299 p53 R273H) [nM] | Kd ([6]; kinetic KD) [nM] | IC50 [1, 9] [nM] | ΔTm at 10 µM [2, 10] [°C] | AC50 ([3]; AC50) [nM] | Emax ([3]; Emax) [%] | IC50 ([4]; NUGC3 cells) [nM] | IC50 [5, 11] [nM] | Kd [6] [nM] | ΔTm at 100 µM ([2]; thermal shift) [°C] |
| --- | --- | --- | --- | --- | --- | --- | --- | --- | --- | --- | --- | --- | --- | --- | --- |
| CNC(=O)c1cc(NCC#Cc2cc3c(N[C@@H]4CCN(C)C[C@@H]4F)nccn3c2SC(F)(F)F)c2nccn2c1 [Example 186, 8-{[3-(1-{[(3S,4R)-3-fluoro-1-methylpiperidin-4-yl]amino}-6-[(trifluoromethyl)sulfanyl]pyrrolo[1,2-a]pyrazin-7-yl)prop-2-yn-1-yl]amino}-N-methylimidazo[1,2-a]pyridine-6-carboxamide] | < 750 | ≥ 10 | > 90 | < 750 | < 750 | ≥ 10000 | < 10 |  |  |  |  |  |  |  |  |
| CNC(=O)c1ccc(C#N)c(NCC#Cc2cc3c(N[C@@H]4CCN(C)C[C@@H]4F)nccn3c2SC(F)(F)F)c1 [Example 300] |  |  |  |  |  |  |  | < 750 | ≥ 10 | < 750 | > 90 | < 750 | ≥ 10000 | < 10 |  |
| CNC(=O)c1ccc(NCC#Cc2nc3c(N[C@@H]4CCn5nccc5C4)cccn3c2SC(F)(F)F)c(OC)c1 [Example 179] | 1500 to 3000 | 5 to 10 | < 70 | 1500 to 3000 | 1500 to 3000 | ≥ 10000 | 10 to 100 |  |  |  |  |  |  |  | 5 to 10 |
| COc1cc(C(=O)NC(C)C)ccc1NCC#Cc1nc2c(N[C@@H]3CCN(C)C[C@@H]3F)cccn2c1SC(F)(F)F [Example 89, 4-{[3-(8-{[(3S,4R)-3-fluoro-1-methylpiperidin-4-yl]amino}-3-[(trifluoromethyl)sulfanyl]imidazo[1,2-a]pyridin-2-yl)prop-2-yn-1-yl]amino}-N-isopropyl-3-methoxybenzamide] | < 750 |  | 80 to 90 | < 750 | < 750 | 8000 to 10000 | < 10 |  |  |  |  |  |  |  | ≥ 10 |
| CNC(=O)c1ccc(NCC#Cc2cc3c(N[C@@H]4CCN(C)C[C@@H]4F)cccn3c2SC(F)F)c(OC)c1 [Example 135, 4-[(3-{3-[(difluoromethyl)sulfanyl]-8-{[(3S,4R)-3-fluoro-1-methylpiperidin-4-yl]amino}indolizin-2-yl}prop-2-yn-1-yl)amino]-3-methoxy-N-methylbenzamide] | < 750 | ≥ 10 | > 90 | < 750 | < 750 | 8000 to 10000 | < 10 |  |  |  |  |  |  |  |  |
| CNC(=O)c1ccc(NCC#Cc2cc3c(N[C@@H]4CCN(C)C[C@@H]4F)cccn3c2SC(F)(F)F)cc1 [Example 357] |  |  |  |  |  |  |  | < 750 | ≥ 10 | < 750 | > 90 | < 750 | 5000 to 8000 | < 10 |  |
| COc1cc2c(cc1NCC#Cc1nc3c(N[C@@H]4CCN(C)C[C@@H]4F)cccn3c1SC(F)(F)F)CNC2=O [Example 96, 5-{[3-(8-{[(3S,4R)-3-fluoro-1-methylpiperidin-4-yl]amino}-3-[(trifluoromethyl)sulfanyl]imidazo[1,2-a]pyridin-2-yl)prop-2-yn-1-yl]amino}-6-methoxy-2,3-dihydroisoindol-1-one] | < 750 | ≥ 10 | 80 to 90 | < 750 | < 750 | 5000 to 8000 | < 10 |  |  |  |  |  |  |  | ≥ 10 |
| CNc1cc(NC2CCN(C)CC2)c2nc(C#CCNc3ccc(S(C)(=O)=O)cc3OC)c(CC(F)(F)F)n2c1 [Example 33, 2-{3-[(4-methanesulfonyl-2-methoxyphenyl)amino]prop-1-yn-1-yl}-N6-methyl-N8-(1-methylpiperidin-4-yl)-3-(2,2,2-trifluoroethyl) imidazo[1,2-a]pyridine-6,8-diamine] | > 3000 |  | < 70 | > 3000 | > 3000 | ≥ 10000 | 10 to 100 |  |  |  |  |  |  |  | 1 to 5 |
| COc1ccc(S(C)(=O)=O)cc1NCC#Cc1nc2c(N[C@@H]3CCN(C)C[C@@H]3F)cccn2c1SC(F)(F)F [Example 84, (3S,4R)-3-fluoro-N-(2-{3-[(5-methanesulfonyl-2-methoxyphenyl)amino]prop-1-yn-1-yl}-3-[(trifluoromethyl)sulfanyl]imidazo[1,2-a]pyridin-8-yl)-1-methylpiperidin-4-amine] | 1500 to 3000 | 5 to 10 | 80 to 90 | 1500 to 3000 | 1500 to 3000 | ≥ 10000 | < 10 |  |  |  |  |  |  |  | ≥ 10 |
| CCOc1cc(C(=O)NC)ccc1NCC#Cc1nc2c(N[C@@H]3CCN(C)C[C@@H]3F)cccn2c1CC(F)(F)F [Example 59, 3-ethoxy-4-{[3-(8-{[(3S,4R)-3-fluoro-1-methylpiperidin-4-yl]amino}-3-(2,2,2-trifluoroethyl)imidazo[1,2-a]pyridin-2-yl)prop-2-yn-1-yl]amino}-N-methylbenzamide] | 750 to 1500 |  | 70 to 80 | 1500 to 3000 | 750 to 1500 | ≥ 10000 | < 10 |  |  |  |  |  |  |  | 5 to 10 |
| CNC(=O)c1ccc(OC)c(NCC#Cc2nc3c(N[C@@H]4CNC[C@@H]4F)cccn3c2SC(F)(F)F)c1 [Example 152] | < 750 | ≥ 10 | 70 to 80 | < 750 | < 750 | ≥ 10000 | < 10 |  |  |  |  |  |  |  | ≥ 10 |
| CNC(=O)c1ccc(NCC#Cc2nc3c(N[C@@H]4CCc5ncnn5C4)cccn3c2SC(F)(F)F)c(OC)c1 (stereo in doubt) [Example 190] | < 750 | 5 to 10 | > 90 | < 750 | < 750 | ≥ 10000 | < 10 |  |  |  |  |  |  |  | ≥ 10 |
| CNC(=O)c1ccc(NCC#Cc2nc3c(N[C@H]4CCNC(=O)C4)cccn3c2SC(F)(F)F)c(OC)c1 [Example 174] | 1500 to 3000 | ≥ 10 | 80 to 90 | 1500 to 3000 | 750 to 1500 | ≥ 10000 | < 10 |  |  |  |  |  |  |  | ≥ 10 |
| CCS(=O)(=O)c1ccc(NCC#Cc2nc3c(N[C@@H]4CCNC[C@@H]4F)cccn3c2SC(F)(F)F)c(OC)c1 [Example 80, (3S,4R)—N-[2-(3-{[4-(ethanesulfonyl)-2-methoxyphenyl]amino}prop-1-yn-1-yl)-3-[(trifluoromethyl)sulfanyl]imidazo[1,2-a]pyridin-8-yl]-3-fluoropiperidin-4-amine] | < 750 |  | 80 to 90 | < 750 | < 750 | 5000 to 8000 | < 10 |  |  |  |  |  |  |  | ≥ 10 |
| CNC(=O)N1CCC(Nc2cccn3c(CC(F)(F)F)c(C#CCNc4ccc(S(C)(=O)=O)cc4OC)nc23)CC1 [Example 117, 4-[(2-{3-[(4-methanesulfonyl-2-methoxyphenyl)amino]prop-1-yn-1-yl}-3-(2,2,2-trifluoroethyl)imidazo[1,2-a]pyridin-8-yl)amino]-N-methylpiperidine-1-carboxamide] | > 3000 |  | 70 to 80 | > 3000 | > 3000 | ≥ 10000 | 10 to 100 |  |  |  |  |  |  |  | 5 to 10 |
| CNC(=O)c1ccc(NCC#Cc2cn3c(N[C@@H]4CCN(C)C[C@@H]4F)cccc3c2SC(F)(F)F)c(OC)c1 [Example 139, 4-{[3-(5-{[(3S,4R)-3-fluoro-1-methylpiperidin-4-yl]amino}-1-[(trifluoromethyl)sulfanyl]indolizin-2-yl)prop-2-yn-1-yl]amino}-3-methoxy-N-methylbenzamide] | < 750 | ≥ 10 | > 90 | < 750 | < 750 | 5000 to 8000 | < 10 |  |  |  |  |  |  |  |  |
